Assay results reported in patent publication US12629374B2, “Antimalarial agents” (Merck Sharp & Dohme LLC, priority 2020, dated 2026).
Where a name gives a salt, the structure may show the parent alone. Read-outs that look alike come from different tables or passages of the source.

System: ring stage parasites
Test: Parasite growth potency assay, 72 hours, LDH readout
Format: cell-based
Conditions: parasite growth measured by LDH assay after 72 hours at 37° C., 0.7% rings, 2% haematocrit, read-out: EC50
Summary of the method: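 Parasite growth was quantified by LDH assay after a −80 °C freeze-thaw. Before that, compound was incubated for 72 h at 37 °C under humidified gas with ring-stage cultures adjusted to 0.7% parasitemia and 2% haematocrit in serum- and albumax-supplemented RPMI-Hepes.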

SMILES	EC50 (72 h) [nM]	further results
CCC[C@@H](c1cc(C(=O)N[C@H]2CCOc3ccccc32)ccn1)N1C(=N)NC(CC)(CC)CC1=O [Example 49B, [1-[1-[4-[[(4S)-chroman-4-yl]carbamoyl]pyridin-1-ium-2-yl]butyl]-4,4-diethyl-6-oxo-hexahydropyrimidin-2-ylidene]ammonium; 2,2,2-trifluoroacetate]	85	
CC1(C)CC(=O)N(Cc2cccc(C(=O)N[C@@H]3c4cc(F)ccc4OC(C)(C)[C@H]3O)c2)C(=N)N1 [Example 182, [1-[[3-[[(3S,4R)-6-fluoro-3-hydroxy-2,2-dimethyl-chroman-4-yl]carbamoyl]phenyl]methyl]-4,4-dimethyl-6-oxo-hexahydropyrimidin-2-ylidene]ammonium; 2,2,2-trifluoroacetate]	5.4	
CCC1(CC)CC(=O)N([C@H](CCOC)c2cc(F)cc(C(=O)N[C@@H]3c4ccccc4OC(C)(C)[C@H]3O)c2)C(=N)N1 (stereo in doubt) [Example 129A, [4,4-diethyl-1-[1-[3-fluoro-5-[(3-hydroxy-2,2-dimethyl-chroman-4-yl)carbamoyl]phenyl]-3-methoxy-propyl]-6-oxo-hexahydropyrimidin-2-ylidene]ammonium; 2,2,2-trifluoroacetate]	0.8	
CCC[C@H](c1cccc(C(=O)N[C@H]2CCc3ccccc32)c1)N1C(=N)NC(CC)(CC)CC1=O [Example 76, [4,4-diethyl-1-[1-[3-[[(1S)-indan-1-yl]carbamoyl]phenyl]butyl]-6-oxo-hexahydropyrimidin-2-ylidene]ammonium; 2,2,2-trifluoroacetate]	0.9	
CCC1(CC)CC(=O)N(Cc2cccc(C(=O)N[C@@H]3c4ccccc4OC3(C)CO)c2)C(=N)N1 (stereo in doubt) [Example 187A, [4,4-diethyl-1-[[3-[[2-(hydroxymethyl)-2-methyl-3H-benzofuran-3-yl]carbamoyl]phenyl]methyl]-6-oxo-hexahydropyrimidin-2-ylidene]ammonium; 2,2,2-trifluoroacetate]		EC50 (trifluoroacetate): 54.2 nM
CCC1(CC)CC(=O)N([C@H](CCOC)c2cncc(C(=O)N[C@H]3CC(C)(C)Oc4ccccc43)c2)C(=N)N1 [Example 103, [1-[1-[5-I(4S)-2,2-dimethylchroman-4-yl]carbamoyl]pyridin-1-ium-3-yl]-3-methoxy-propyl]-4,4-diethyl-6-oxo-hexahydropyrimidin-2-ylidene]ammonium; 2,2,2-trifluoroacetate]	0.5	
CC[C@]1(C)CC(=O)N([C@H](CCOC)c2cccc(C(=O)NC3c4ccccc4OC(C)(C)C3(C)O)c2)C(=N)N1 (single isomer, unassigned) [Example 234A]		EC50: 0.43 nM
CC[C@]1(CC(C)C)CC(=O)N(Cc2cc(F)cc(C(=O)N[C@@H]3c4ccccc4C[C@H]3O)c2)C(=N)N1 [Example 47, [(4S)-4-ethyl-1-[[3-fluoro-5-[[(1R,2R)-2-hydroxyindan-1-yl]carbamoyl]phenyl]methyl]-4-isobutyl-6-oxo-hexahydropyrimidin-2-ylidene]ammonium; 2,2,2-trifluoroacetate]	6.5	
CCC1(CC)CC(=O)N([C@H](C)c2cccc(C(=O)N[C@@H]3c4ccccc4C[C@]3(C)O)c2)C(=N)N1 [Example 192B, 3-[(1R)-1-(4,4-diethyl-2-imino-6-oxo-hexahydropyrimidin-1-yl)ethyl]-N-[(1R,2S)-2-hydroxy-2-methyl-indan-1-yl]benzamide]		EC50: 2.7 nM
CCC[C@H](c1cccc(C(=O)N[C@H]2CCOc3ccccc32)c1)N1C(=N)N[C@](CC)(c2ccccc2)CC1=O [Example 70, [(4S)-1-[(1R)-1-[3-[[(4S)-chroman-4-yl]carbamoyl]phenyl]butyl]-4-ethyl-6-oxo-4-phenyl-hexahydropyrimidin-2-ylidene]ammonium; 2,2,2-trifluoroacetate]	76	
CCC1(CC)CC(=O)N([C@H](CCN2CCOCC2)c2cccc(C(=O)NC3CC(C)(C)Oc4ccc(F)cc43)c2)C(=N)N1 (stereo in doubt) [Example 137, [4,4-diethyl-1-[1-[3-[(6-fluoro-2,2-dimethyl-chroman-4-yl)carbamoyl]phenyl]-3-morpholin-4-ium-4-yl-propyl]-6-oxo-hexahydropyrimidin-2-ylidene]ammonium; 2,2,2-trifluoroacetate]	0.8	
N=C1N[C@@](CC2CC2)(c2ccccc2)CC(=O)N1Cc1cccc(C(=O)N[C@H]2CCOc3ccccc32)c1 [Example 6A, [(4R)-1-[[3-[[(4S)-chroman-4-yl]carbamoyl]phenyl]methyl]-4-(cyclopropylmethyl)-6-oxo-4-phenyl-hexahydropyrimidin-2-ylidene]ammonium; 2,2,2-trifluoroacetate]	58.8	
CC[C@]1(C)CC(=O)N([C@H](C)c2cccc(C(=O)NC3c4ccccc4OC(C)(C)C3(C)O)c2)C(=N)N1 (stereo partly drawn) [Example 225, 3-[(1R)-1-[(4R)-4-ethyl-2-imino-4-methyl-6-oxo-hexahydropyrimidin-1-yl]ethyl]-N-(3-hydroxy-2,2,3-trimethyl-chroman-4-yl)benzamide]	0.32	
CCC1(C)CC(=O)N([C@H](CCOC)c2cccc(C(=O)N[C@@H]3c4ccccc4CC3(C)O)c2)C(=N)N1 (stereo partly drawn) [Example 196D, 3-[(1R)-1-(4-ethyl-2-imino-4-methyl-6-oxo-hexahydropyrimidin-l-yl)-3-methoxy-propyl]-N-[(1R,2R)-2-hydroxy-2-methyl-indan-1-yl]benzamide]		EC50: 6.8 nM
CCC1(CC)CC(=O)N([C@H](CCOC)c2cccc(C(=O)N[C@@H]3c4ccccc4OC3(C)CO)c2)C(=N)N1 (single isomer, unassigned) [Example 180A, trifluoroacetate]		EC50 (trifluoroacetate): 1.5 nM
CC1(C)CC(=O)N(Cc2cc(F)cc(C(=O)N[C@@H]3c4cc(F)ccc4OC(C)(C)[C@H]3O)c2)C(=N)N1 (stereo in doubt) [Example 197, [1-[[3-fluoro-5-[(6-fluoro-3-hydroxy-2,2-dimethyl-chroman-4-yl)carbamoyl]phenyl]methyl]-4,4-dimethyl-6-oxo-hexahydropyrimidin-2-ylidene]ammonium; 2,2,2-trifluoroacetate]	3.4	
CCC1(CC)CC(=O)N([C@@H](c2cccc(C(=O)N[C@@H]3CC(C)(C)Oc4ccccc43)c2)c2cncs2)C(=N)N1 (stereo in doubt) [Example 90B, 3-[(4,4-diethyl-2-imino-6-oxo-hexahydropyrimidin-1-yl)-thiazol-5-yl-methyl]-N-(2,2-dimethylchroman-4-yl)benzamide]		EC50: 0.5 nM
CCC[C@H](c1cccc(C(=O)N[C@H]2CCOc3ccccc32)c1)N1C(=N)NC(CC)(CC)CC1=O [Example 13A, [1-[1-[3-[[(4S)-chroman-4-yl]carbamoyl]phenyl]butyl]-4,4-diethyl-6-oxo-hexahydropyrimidin-2-ylidene]ammonium; 2,2,2-trifluoroacetate]	0.3	
CCC1(CC)CC(=O)N([C@H](CCS(C)(=O)=O)c2cccc(C(=O)N[C@@H]3c4ccccc4C[C@H]3O)c2)C(=N)N1 [Example 153, [4,4-diethyl-1-[1-[3-[[(1R,2R)-2-hydroxyindan-1-yl]carbamoyl]phenyl]-3-methylsulfonyl-propyl]-6-oxo-hexahydropyrimidin-2-ylidene]ammonium; 2,2,2-trifluoroacetate]	77.8	
CCC1(CC)CC(=O)N([C@H](c2cccc(C(=O)N[C@H]3CCOc4ccccc43)c2)c2cncs2)C(=N)N1 (single isomer, unassigned) [Example 85B, trifluoroacetate]	2.1	
